Measurements as given in PMC10914731, “Homo-BacPROTAC-induced degradation of ClpC1 as a strategy against drug-resistant mycobacteria” (Nature Communications, 2024).
Values after ≈ are worked out from the molar mass of the structure shown. Values joined by “and” are separate entries in the source; they are usually repeats but may differ in a detail not shown here. Identical values can stand only once. Like-named read-outs stand apart in the source and are kept apart here.

Assays:
Mtb ATCC 35825 = assay: microbe, parasite or virus in culture; format: cell-based
[1] = test system: Mtb (katG del) ATCC 35822; assay: microbe, parasite or virus in culture; format: cell-based; settings: Mycobacterium tuberculosis
Mtb # 11291 = assay: microbe, parasite or virus in culture; format: cell-based; settings: for MIC: read-out: MIC Mtb # 11291
[2] = test system: M. tuberculosis H37Rv (ATCC 27294); assay: microbe, parasite or virus in culture; format: cell-based; settings: Mycobacterium tuberculosis
[3] = test system: Mycobacterium intracellulare; assay: microbe, parasite or virus in culture; format: cell-based; settings: Mycobacterium intracellulare; mean ± SD; read-out: MIC Mycobacterium intracellulare
Mycobacterium fortuitum = assay: microbe, parasite or virus in culture; format: cell-based
[4] = test system: Mtb H37Rv in THP-1 macrophages; assay: Intracellular MIC assay in THP-1 macrophages; format: cell-based, Mycobacterium tuberculosis; settings: H37RV, 19.44 µM
Mycobacterium avium = assay: microbe, parasite or virus in culture; format: cell-based
[5] = test system: non-replicating cells of Mtb H37Rv; format: cell-based, Mycobacterium tuberculosis
Msm 607 = assay: microbe, parasite or virus in culture; format: cell-based
Mtb # 8673 = assay: microbe, parasite or virus in culture; format: cell-based
Mycobacterium abscessus = assay: microbe, parasite or virus in culture; format: cell-based
Mtb (moxR) FNDR-M1 = assay: microbe, parasite or virus in culture; format: cell-based
[6] = Mycobacterium tuberculosis, mean, n = 2 well replicates
[7] = Mycobacterium tuberculosis, single well replicates
[8] = Experiment 2, three replicate columns

## CO[C@H]1/C=C/O[C@@]2(C)Oc3c(C)c(O)c4c(O)c(c(/C=N/N5CCN(C)CC5)c(O)c4c3C2=O)NC(=O)/C(C)=C\C=C\[C@H](C)[C@H](O)[C@@H](C)[C@@H](O)[C@@H](C)[C@H](OC(C)=O)[C@@H]1C [Rifampicin, reference compound]
Mtb ATCC 35825; Mycobacterium tuberculosis, ATCC35825, mean, n = 2 well replicates
  MIC: 0.005 µM and 0.004 µg/mL
Mtb ATCC 35825; Mycobacterium tuberculosis, ATCC35825, single well replicates
  MIC: 0.004 µg/mL and 0.005 µM
Mtb ATCC 35825; single well replicates
  MIC: 0.005 µM (≈ 4.11 ng/mL)
  MIC Mtb ATCC 35825: 0.004 µg/mL (≈ 0.00486 µM)
[1]; ATCC35822, M. tuberculosis ATCC 35822, single well replicates
  MIC: 0.00949 µM (≈ 7.81 ng/mL)
[1]; ATCC35822, Mtb (katG del) ATCC 35822, mean ± SD, n = 3 well replicates
  MIC: 0.01 µM (≈ 8.23 ng/mL)
Mtb # 11291; [6]
  MIC: 0.005 µM and 0.004 µg/mL
Mtb # 11291; [7]
  MIC: 0.005 µM and 0.004 µg/mL
Mtb # 11291; single well replicates
  MIC Mtb # 11291: 0.004 µg/mL (≈ 0.00486 µM)
  MIC: 0.005 µM (≈ 4.11 ng/mL)
[2]; M. tuberculosis H37Rv 27294, single well replicates, read-out: MIC
  MIC: 0.00949 µM (≈ 7.81 ng/mL)
[2]; Mtb H37Rv, mean ± SD, n = 3 well replicates, read-out: MIC
  MIC: 0.01 µM (≈ 8.23 ng/mL)
[2]; Set 1, read-out: MIC (Mtb H37Rv) Set 1
  MIC: 0.00948 µM and 0.0078 µg/mL
[2]; Set 2, read-out: MIC (Mtb H37Rv) Set 2
  MIC: 0.00948 µM and 0.0078 µg/mL
[2]; Set 3, done at a different day than Set 1 and Set 2, read-out: MIC (Mtb H37Rv) Set 3
  MIC: 0.00948 µM and 0.0078 µg/mL
[2]; individual example (Supplementary Table 11), read-out: MIC Mtb H37Rv
  MIC: 0.01 µM and 0.01 µg/mL
[2]; mean of 3 experiments +/- SD, unit taken from the sets above in the same table, read-out: MIC data (Mtb H37Rv) (+/- SD)
  MIC: 0.009 µM and 0.0078 µg/mL
[3]
  MIC: 0.2 µM (≈ 165 ng/mL)
Mycobacterium fortuitum; [8]
  MIC (µg/ml) Mycobacterium fortuitum: 1 µg/mL (≈ 1.22 µM)
Mycobacterium fortuitum; Experiment 2, three replicate columns, read-out: MIC (µM) Mycobacterium fortuitum
  MIC: 1.22 µM
Mycobacterium fortuitum; Mycolicibacterium fortuitum, Experiment 2, three replicate columns, read-out: MIC (µM) Mycobacterium fortuitum
  MIC: 1.22 µM
Mycobacterium fortuitum; Mycolicibacterium fortuitum, Experiment 2, three replicate columns, read-out: MIC (µg/ml) Mycobacterium fortuitum
  MIC: 1 µg/mL
Mycobacterium fortuitum; Mycolicibacterium fortuitum, mean ± SD, read-out: MIC Mycobacterium fortuitum
  MIC: 1.2 µM
[4]; 96 h
  intracellular viable mycobacteria: 4.26 log10 cfu/ml
[4]; 168 h
  intracellular viable mycobacteria: 3.56 log10 cfu/ml
Mycobacterium avium; [8]
  MIC (µg/ml) Mycobacterium avium: 0.25 µg/mL (≈ 0.304 µM)
Mycobacterium avium; Experiment 2, three replicate columns, read-out: MIC (µM) Mycobacterium avium
  MIC: 0.30 µM
Mycobacterium avium; Mycobacterium avium, Experiment 2, three replicate columns, read-out: MIC (µM) Mycobacterium avium
  MIC: 0.3 µM
Mycobacterium avium; Mycobacterium avium, Experiment 2, three replicate columns, read-out: MIC (µg/ml) Mycobacterium avium
  MIC: 0.25 µg/mL
Mycobacterium avium; Mycobacterium avium, mean ± SD, read-out: MIC Mycobacterium avium
  MIC: 0.3 µM
[5]
  inhibitory activity on non-growing Mtb H37Rv: retained a partial inhibitory activity
Msm 607; Mycolicibacterium smegmatis, 607, read-out: MIC Msm #607, individual example (Supplementary Table 11)
  MIC: 9.7 µM and 8 µg/mL
Msm 607; Mycolicibacterium smegmatis, ATCC607, Set-3, done at a different day than Set 1 and Set 2, read-out: MIC (Msm ATCC607) Set-3
  MIC: 9.72 µM and 8 µg/mL
Msm 607; Mycolicibacterium smegmatis, ATCC607, mean of 3 experiments ± SD, read-out: MIC including standard deviations (Msm ATCC607)
  MIC: 13 µM and 10.6 µg/mL
Msm 607; Mycolicibacterium smegmatis, ATCC607, read-out: MIC (Msm ATCC607) Set-1
  MIC: 9.72 µM and 8 µg/mL
Msm 607; Mycolicibacterium smegmatis, ATCC607, read-out: MIC (Msm ATCC607) Set-2
  MIC: 19.4 µM and 16 µg/mL
Mtb # 8673; [6]
  MIC: 38.9 µM and 32 µg/mL
Mtb # 8673; [7]
  MIC: 38.9 µM and 32 µg/mL
Mtb # 8673; single well replicates
  MIC: 38.88 µM (≈ 32000 ng/mL)
  MIC Mtb # 8673: 32 µg/mL (≈ 38.9 µM)
Mycobacterium abscessus; [8]
  MIC (µg/ml) Mycobacterium abscessus: 8 µg/mL (≈ 9.72 µM)
Mycobacterium abscessus; Experiment 2, three replicate columns, read-out: MIC (µM) Mycobacterium abscessus
  MIC: 9.72 µM
Mycobacterium abscessus; Mycobacteroides abscessus, Experiment 2, three replicate columns, read-out: MIC (µM) Mycobacterium abscessus
  MIC: 9.72 µM
Mycobacterium abscessus; Mycobacteroides abscessus, Experiment 2, three replicate columns, read-out: MIC (µg/ml) Mycobacterium abscessus
  MIC: 8 µg/mL
Mycobacterium abscessus; Mycobacteroides abscessus, mean ± SD, read-out: MIC Mycobacterium abscessus
  MIC: 9.7 µM
Mtb (moxR) FNDR-M1; M. tuberculosis FNDR-M1, single well replicates
  MIC: 0.019 µM and 0.00949 µM (2×)
Mtb (moxR) FNDR-M1; Mycobacterium tuberculosis, Mtb (moxR) FNDR-M1, mean ± SD, n = 3 well replicates
  MIC: 0.01 µM (≈ 8.23 ng/mL)
